Experimental findings from US20140128364A1, “THERAPEUTIC USES OF TIGEMONAM AND CARUMONAM” (priority 2012, published 2014) are described below.

In brackets after ≈: the same amount, converted by molar mass. Read-outs that look alike come from different tables or passages of the source.

Assay [1] relates to Escherichia coli strain ECM6704 (vector pUCP24 alone). The assay is described as follows: microbe, parasite or virus in culture. It counts as cell-based. The settings on record: E. coli ECM6704, vector alone, cation-adjusted Mueller-Hinton broth, 18 h, 35° C. The procedure:
(§1) MICs were recorded after an eighteen-hour growth at 35° C. […] In Table 1, all genes were cloned into vector pUCP24 and introduced into Escherichia coli strain.

Assay [2] relates to Escherichia coli EC1007 (KPC-3). The assay is described as follows: microbe, parasite or virus in culture. The settings on record: 18 h.
Assay [3] has as its system Enterobacter cloacae ECL1055 (KPC-3, TEM). The assay is described as follows: MIC, CLSI broth microdilution, clinical strain ECL1055. Conditions: clinical strain ECL1055, Enterobacter loacae, 18 h, 35° C. Format: cell-based.
Assay [4] has as its system Klebsiella pneumoniae KP1008 (KPC-2). The assay is described as follows: microbe, parasite or virus in culture. The settings on record: 18 h.
Assay [5] relates to Citrobacter freundii CF1012 (KPC-2). The assay is described as follows: microbe, parasite or virus in culture. Conditions: 18 h.
In assay [6] the test system is Enterobacter cloacae ECL1026 (KPC-2, TEM-1). The assay is described as follows: microbe, parasite or virus in culture. Format: cell-based. The settings on record: 18 h.
Assay [7] concerns Escherichia coli strain ECM6701 expressing KPC-2 β-lactamase. The assay is described as follows: microbe, parasite or virus in culture. The settings on record: 18 h. The procedure:
as §1

In assay [8] the test system is Escherichia coli strain ECM6702 expressing KPC-3 β-lactamase. The assay is described as follows: microbe, parasite or virus in culture. Conditions: 18 h. The protocol:
as §1

The subject of assay [9] is Enterobacter cloacae ECL1036 (KPC-3, TEM-1). The assay is described as follows: microbe, parasite or virus in culture. The settings on record: 18 h. Format: cell-based.
The test system of assay [10] is Klebsiella pneumoniae KP1008 (KPC-2). Conditions: clinical strain KP1008, Klebsiella pneumoniae, 18 h, 35° C.
Assay [11] relates to Escherichia coli EC1007 (KPC-3). The settings on record: clinical strain EC1007, Escherichia coli, 18 h, 35° C.
Assay [12] addresses purified KPC-2 β-lactamase (Klebsiella pneumoniae, UniProt Q9F663). The assay is described as follows: Kinetics of monobactam hydrolysis by purified KPC-2.
Protocol: The optical density was checked every 2 minutes for 2 hours. […] Vmax and Km values were calculated using “Prizm” software (“GraphPad”). Kcat values were calculated using the equation kcat=Vmax/[enzyme concentration].
In assay [13] the test system is Citrobacter freundii CF1012 (KPC-2). Conditions: clinical strain CF1012, Citrobacter freundii, 18 h, 35° C.
Setting [14] is: Escherichia coli, read-out: MIC.

Chain of purified KPC-2 β-lactamase (Q9F663 25-293 limits assumed): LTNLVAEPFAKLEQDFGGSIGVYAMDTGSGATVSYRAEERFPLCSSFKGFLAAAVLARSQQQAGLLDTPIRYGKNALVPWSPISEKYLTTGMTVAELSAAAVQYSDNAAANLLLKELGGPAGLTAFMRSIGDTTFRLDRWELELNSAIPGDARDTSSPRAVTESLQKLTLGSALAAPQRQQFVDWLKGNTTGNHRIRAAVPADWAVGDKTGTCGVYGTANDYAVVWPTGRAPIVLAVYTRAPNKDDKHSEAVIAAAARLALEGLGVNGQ

Turning to `C[C@H]1[C@H](NC(=O)/C(=N\OC(C)(C)C(=O)O)c2csc(N)n2)C(=O)N1S(=O)(=O)O` [Aztreonam, aztreonam], the MIC in [1] (setting [14]) was not above 0.125 µg/mL.

Consider `NC(=O)OC[C@@H]1[C@H](NC(=O)/C(=N\OCC(=O)O)c2csc(N)n2)C(=O)N1S(=O)(=O)O` [Carumonam, carumonam], for which the MIC was 1 µg/mL (≈ 2.14 µM) in assay [2]; not above 0.125 µg/mL in assay [1] (setting [14]); 4 µg/mL (≈ 8.58 µM) in assay [3] (Enterobacter cloacae, read-out: MIC); 0.5 µg/mL (≈ 1.07 µM) in [4]; 2 µg/mL (≈ 4.29 µM) in [5]; 2 µg/mL (≈ 4.29 µM) in assay [6] (Enterobacter cloacae). In addition, the MIC in assay [7] (Escherichia coli) was found to be 0.25 µg/mL (≈ 0.536 µM); in [8] (Escherichia coli) it was 0.25 µg/mL (≈ 0.536 µM); in [9] (Enterobacter cloacae), 2 µg/mL (≈ 4.29 µM).

Broadly, the Km is the substrate concentration at which the rate is half of its maximum. What is called kcat is the number of substrate molecules converted per active site and unit of time at saturation. For `CC1(C)[C@H](NC(=O)/C(=N\OCC(=O)O)c2csc(N)n2)C(=O)N1OS(=O)(=O)O` [Tigemonam, tigemonam], the MIC result is “<=0.125 μg/ml” in assay [1]; 8 µg/mL (≈ 18.3 µM) in [3]; 1 µg/mL (≈ 2.29 µM) in assay [10]; 1 µg/mL (≈ 2.29 µM) in [11]; 4 µg/mL (≈ 9.14 µM) in [6] (clinical strain ECL1026, Enterobacter cloacae, KPC-2, TEM-1, 35° C.); 0.25 µg/mL (≈ 0.572 µM) in [7] (E. coli ECM6701, KPC-2, cation-adjusted Mueller-Hinton broth, 35° C.). Besides, the MIC is 0.5 µg/mL (≈ 1.14 µM) in assay [8] (E. coli ECM6702, KPC-3, cation-adjusted Mueller-Hinton broth, 35° C.); 8 µg/mL (≈ 18.3 µM) in assay [13]; 8 µg/mL (≈ 18.3 µM) in assay [9] (clinical strain ECL1036, Enterobacter Vcloacae, KPC-3, TEM-1, 35° C.). Further, the Michaelis-Menten constant (Km) in assay [12] (50 mM sodium phosphate pH 7.0, 0.1 mg/ml BSA, 37° C., OD 318 nm) was 678 µM. Also, the kcat in [12] (kcat=Vmax/[enzyme concentration]) is 14 min⁻¹.
